From patent US6664279B2, “Remedies or preventives for liver diseases containing diaminotrifluoromethylpyridine derivatives” (Ishihara Sangyo Kaisha, Ltd., priority 2000, dated 2003)

Experiments:
[1] = tested on: rat liver ischemia reperfusion hepatopathy model; assay: Therapeutic effect on rat liver ischemia reperfusion hepatopathy model; assay type: in vivo
Description: Therapeutic Effect on Rat Liver Ischemia Reperfusion Hepatopathy Model
The therapeutic effect of the compound 1 on rat hepatopathy model induced by partially subjecting the liver to ischemia reperfusion was examined.
(1) The compound 1 was used as a drug formulation. The formulation composition (content per one vial) was as follows.
(2) Crj:SD (IGS) male rats (7 weeks old) (Charles River Japan, Inc.) were anesthetized with ether, and while maintaining them anesthetized with gas-oxygen fluothane, the above drug formulation of the compound 1 diluted with 5% glucose (Lot. 9I78N, manufactured by Otsuka Pharmaceutical Factory, Inc.) so that the dose would be 10 mg/kg/hr as calculated as anhydride of the compound 1, was subcutaneously administered singly. Then, an osmotic pump (alzet osmotic pump 2001D, ALZA CORPORATION, U.S.A.) in which the above drug formulation of the compound 1 diluted with 5% glucose (Lot. 9I78N, manufactured by Otsuka Pharmaceutical Factory, Inc.) so that the dose would be 0.3 mg/kg/hr as calculated as anhydride of the compound 1 was put, was embedded in the dorsal cervical subcutaneous. To non-treated group rats, 5% glucose alone was administered similarly. […] The abdomen was closed, the rats were awaked, and after 90 minutes, the abdomen was opened up again under the above-described anesthesia, the clamp was removed and the rats were subjected to reperfusion. To pseudo-induced group rats, operation except for the ischemia reperfusion treatment was carried out. The abdomen was closed and the rats were awaked, and 6 hours after the reperfusion, aspartate aminotransferase (AST) and alanine aminotransferase (ALT), lactate dehydrogenase (LDH) and total bilirubin values in the blood serum were measured.

[2] = tested on: acetaminophen (APAP) induced mouse hepatopathy model; assay: Therapeutic effect on mouse acetaminophen hepatopathy model; assay type: in vivo
Description: Therapeutic Effect on Mouse Acetaminophen Hepatopathy Model
The therapeutic effect of N-(2-ethylsulfonylamino-5-trifluoromethyl-3-pyridyl)cyclohexanecarboxamide sodium salt hydrate (hereinafter referred to as compound 1) on acetaminophen (APAP) induced mouse hepatopathy model was examined.
To Crj: CD-1(ICR) male mice (6 weeks old) (Charles River Japan Inc.), APAP (Lot. No. 107H0332, manufactured by Sigma) dissolved with physiological saline (Lot No. 80909D manufactured by Fuso Pharmaceutical Industries, Ltd.) was intraperitoneally administered in an amount of the active ingredient of 300 mg/kg to induce hepatopathy. 3 Hours after the administration of APAP, the compound 1 dissolved in physiological saline was singly administered subcutaneously on the back in an amount of the active ingredient of 10 mg/kg. To non-treated group mice, physiological saline was similarly administered. 6 Hours after the administration of APAP, the blood was collected, and glutamic-oxaloacetic transaminase (GOT) and glutamic-pyruvic transaminase (GPT) values in the blood serum were measured.
In the present test, mice were kept on a fast from 20 hours before the administration of APAP until the completion of the test.

[3] = Crj:SD (IGS) male rats, 90 minutes ischemia of about 70% of liver, 10 mg/kg/hr s.c. singly then 0.3 mg/kg/hr by osmotic pump, 6 hours after reperfusion, N = 10
[4] = Crj:CD-1(ICR) male mice, APAP 300 mg/kg i.p., 10 mg/kg s.c. single dose 3 hours after APAP, blood 6 hours after APAP, N = 5

With `CCS(=O)(=O)Nc1ncc(C(F)(F)F)cc1NC(=O)C1CCCCC1.O.[Na]` [compound 1, N-(2-ethylsulfonylamino-5-trifluoromethyl-3-pyridyl)cyclohexanecarboxamide sodium salt hydrate] the “ALT (GPT) in blood serum (mean)” value [1, 3] was 5436 IU/L, the “AST (GOT) in blood serum (mean)” value [1, 3] was 8669 IU/L and the “LDH in blood serum (mean)” value [1, 3] was 29601 IU/L. The “Total bilirubin in blood serum (mean)” value [1, 3] was 0.299 mg/dL, the “Effect on hepatopathy (increases in biochemical examination values), in words” value ([1]; rat ischemia reperfusion hepatopathy model, versus non-treated group) was “alleviated” and the “GOT in blood serum (mean ± standard deviation)” value [2, 4] was 530 ± 212 IU/L. The “GPT in blood serum (mean ± standard deviation)” value [2, 4] was 807 ± 603 IU/L and the “Effect on hepatopathy (increases in biochemical examination values), in words” value ([2]; acetaminophen induced mouse hepatopathy model, 10 mg/kg s.c., versus non-treated group) was “hepatopathy was alleviated”.
